# Measured values taken from publication PMC7310027, “PET imaging of soluble epoxide hydrolase in non-human primate brain with [^18F]FNDP” (EJNMMI Research, 2020).
# Legend:
# [1] = test system: soluble epoxide hydrolase (sEH); test: Baboon [^18F]FNDP PET, dose-escalation blocking with AR-9281 (Lassen plot, occupancy); format: in vivo, baboon (Papio anubis)
# Procedure: PET images were acquired using a CPS/CTI high-resolution research tomograph (HRRT), which has an axial resolution (FWHM) of 2.4 mm and in-plane resolution of 2.4–2.8 mm. […] These blocking studies were performed 27 to 43 days apart from each other to ensure full animal recovery. The animals had no food for 12 h prior to each PET study. Anesthesia was induced with intramuscular ketamine (7.5–10 mg/kg) and maintained with a continuous intravenous infusion of propofol at 0.3–0.4 mg/kg/min throughout the PET experiment. One venous catheter was inserted for the radioligand injection, and one arterial catheter was inserted to obtain arterial blood samples. Baboons were intubated to facilitate respiration, and circulatory volume was maintained by constant infusion of isotonic saline. Physiological vital signs including heart rate, blood pressure, electrocardiogram, and oxygen saturation were monitored continuously throughout the study.
# The animals were positioned in the PET scanner with the head immobilized using a thermoplastic mask. […] The 90-min dynamic PET acquisition was then started in three-dimensional list mode simultaneously with an intravenous bolus injection of [^18F]FNDP. […]
# Next, kinetic modeling was performed based on the TACs and the metabolite-corrected arterial plasma input functions. For brain uptake, the primary outcome measure was the regional brain distribution volume (VT) of [^18F]FNDP, defined as concentration of the radiotracer in regional tissue relative to that in blood at equilibrium. We evaluated which compartmental models (e.g., two-tissue-three-compartment (2TCM) or one-tissue-two-compartment (1TCM)) best described the [^18F]FNDP PET data, using statistical model selection criteria, such as the Akaike information criterion. For comparison, the Logan graphical method (t* = 30 min) was also used to compute regional VT, as well as generating voxel-wise parametric images of VT [31].
# For blocking studies, occupancy of sEH by FNDP was calculated using regional VT values as Eq 1 Occupancy=ΔVT/VTBaseline−VND,
# where VND, the distribution volume of non-displaceable radioligand, was obtained from the Lassen plot, i.e., using a scatterplot of ΔVT (i.e., baseline VT minus post-blocking VT) versus baseline VT of all regions. […] When that condition was satisfied, VND was given as the intercept of the regression line with the X-axis. The non-displaceable binding potential (BPND) was computed as VT /VND − 1.
# [2] = Baboon plasma radiometabolite analysis by HPLC; format: in vivo, baboon (Papio anubis)
# Procedure: Measurement of the arterial plasma input function was conducted through collection of ~ 40 blood samples over the course of the 90-min dynamic PET study. […] Samples were then centrifuged at 1200 × g, and the plasma radioactivity was measured with a cross-calibrated PerkinElmer Wizard 2480 automatic gamma counter.
# Select plasma samples (0, 5, 10, 20, 30, 60, and 90 min) were analyzed for radiometabolites using high-performance liquid chromatography (HPLC). The modified column-switching HPLC method was used. The HPLC system consisting of a 1260 infinity quaternary pump, a 1260 infinity column compartment module, a 1260 infinity UV detector, and a Raytest GABI Star radiation detector, was operated with OpenLab CDS EZChrom (A.01.04) software. […] After 1 min of isocratic elution, analytical mobile phase composed of 65% acetonitrile and 35% water with 0.06 M trimethylamine (at pH = 7.2, adjusted with phosphoric acid) was applied to direct non-polar compounds trapped on the capture column to an analytical column (Gemini C18(2), 10 μm, 4.6 × 250 mm) and detectors at 2 mL/min. The HPLC system was standardized for mass using non-radioactive FNDP prior to analysis of the blood plasma samples, which were spiked with 5 μL of non-radioactive FNDP at a concentration of 1 mg/mL.
# [3] = Murine radiometabolite analysis (blood and brain) by RP-HPLC; format: in vivo, CD-1 mice
# Procedure: Male CD-1 mice (25–26 g) were injected via the lateral tail vein with 37 MBq of high specific activity (1.1 TBq/μmol or 29.7 Ci/μmol) [^18F]FNDP. The mice were sacrificed by cervical dislocation at 10 and 30 min after injection, and a terminal blood sample was obtained. The mouse brains were rapidly removed, homogenized in 2 mL of ACN:H2O 50%–50% (vol) with 0.06 M ammonium formate to extract parent tracer and radiometabolites, centrifuged at 20,000 g at 4 °C. Resulting supernatants were analyzed by reverse-phase (RP)-HPLC.
# [4] = parameters: method as in PMID 27417650; details: mouse brain; cited from earlier work
# [5] = parameters: method as in PMID 27417650; details: baboon brain; cited from earlier work
# sEH = test system: sEH; parameters: method as in PMID 27417650; details: self-blockade experiments; cited from earlier work
structure (smiles),measurement,setting,value
"O=C(NCCC(c1ccccc1)c1ccccc1)c1ccc([18F])nc1 [[^18F]FNDP, N-(3,3-diphenylpropyl)-6-^18F-fluoronicotinamide]",K1 (2TCM),"[1]; 0.02-mg/kg AR-9281 blocking scan, Baboon3",0.170 ± 0.021 mL/cm^3/min
same,K1 (2TCM),"[1]; 0.1-mg/kg AR-9281 blocking scan, Baboon3",0.179 ± 0.026 mL/cm^3/min
same,K1 (2TCM),"[1]; 1-mg/kg AR-9281 blocking scan, Baboon3",0.166 ± 0.032 mL/cm^3/min
same,VND (distribution volume of non-displaceable radioligand),"[1]; Lassen plot, AR-9281 blocking scans, Baboon3",0.865 ± 0.066 mL/mL
same,specific binding (binding specificity),[1]; baboon brain,91.70 ± 1.74%
same,total distribution volume (VT),"[1]; male, baboon (Papio anubis), brain, intravenous, read-out: high-dose blocking VT",1 ± 0.09
same,"fraction of radioactivity by HPLC (Met-1, Met-2, parent)",[2]; Baboon blood (10 min),77.0 ± 3.6%
same,"fraction of radioactivity by HPLC (Met-1, Met-2, parent)",[2]; Baboon blood (30 min),46.5 ± 6.4%
same,"fraction of radioactivity by HPLC (Met-1, Met-2, parent)",[2]; Baboon blood (60 min),28.3 ± 9.3%
same,"fraction of radioactivity by HPLC (Met-1, Met-2, parent)",[2]; Baboon blood (90 min),21.8 ± 7.0%
same,suggested fraction of brain radioactivity that is parent,"[2]; baboon brain, extrapolated",> 95%
same,"fraction of radioactivity by HPLC (Met-1, Met-2, parent)",[3]; Mouse blood (10 min),63.4 ± 4.4%
same,"fraction of radioactivity by HPLC (Met-1, Met-2, parent)",[3]; Mouse blood (30 min),50.1 ± 10.5%
same,"fraction of radioactivity by HPLC (Met-1, Met-2, parent)",[3]; Mouse brain (10 min),99.2 ± 0.3%
same,"fraction of radioactivity by HPLC (Met-1, Met-2, parent)",[3]; Mouse brain (30 min),98.3 ± 0.3%
same,"brain uptake, injected dose per gram of tissue",[4],5 % ID/g
same,"brain uptake, standardized uptake value (SUV)",[5],4
same,binding specificity for sEH,sEH,~ 95%
